Experimental findings from publication PMC10894092, “Characterization of a recombinant Aspergillus niger GZUF36 lipase immobilized by ionic liquid modification strategy” (Applied Microbiology and Biotechnology, 2024) are described below.

The experiment deals with T1, PEXANL1.
T1 construct: gene EXANL1; recombinant extracellular lipase, secreted/purified from Pichia pastoris GS115
The experiment can be described thus: p-nitrophenol release at […] nm, Lineweaver-Burk. The following applies: free enzyme; pH 5.0, 45 °C; 5-30 mM substrate range; phosphate-citrate buffer, substrate stock in 2-propanol. The experiment is classed as biochemical, Aspergillus niger.

As for `CCCCCCCCCCCCCCCC(=O)Oc1ccc([N+](=O)[O-])cc1` [p-nitrophenyl palmitate], the Km was found to be 2650 µM.

In general, Km refers to the concentration of substrate that gives half-maximal velocity.
